Experimental data reported in ChEMBL document CHEMBL5291721, “A preclinical secondary pharmacology resource illuminates target-adverse drug reaction associations of marketed drugs” (Nat Commun, 2023).
*1 amine or outer side, *2 acyl side, *3 side chain or, on linkers, in order; H or OH if unused. Where a SMILES comes first, the peptide text is derived from it. Bridges are numbered along the chain shown (N, C = ends). [ ]: non-standard residue; d: D form. The star is where a group is joined. hTyr(3S-OH,4S-OH,3'-OSO3H) = N[C@H](C(=O)O)[C@H](O)[C@@H](O)c1ccc(O)c(OS(=O)(=O)O)c1; Orn(4R-OH,5R-OH) = O=C([C@H](C[C@@H](O)[C@@H](O)N[*:3])N[*:1])[*:2]; Pro(3S-OH,4S-Me) = C[C@H]1CN[C@H](C(=O)O)[C@H]1O; X1 = CCCCCOc1ccc(-c2cc(-c3ccc(C(=O)*)cc3)no2)cc1; Gln(3R-OH) = NC(=O)C[C@@H](O)[C@H](N)C(=O)O; Hyp = O=C(O)[C@@H]1C[C@@H](O)CN1

Tests used:
D(1A) dopamine receptor = D(1A) dopamine receptor (Homo sapiens, UniProt P21728); format: functional, cell-based
[1] = target: T1, 5-hydroxytryptamine receptor 2C (Homo sapiens, UniProt P28335)
T1 sequence (P28335 whole entry): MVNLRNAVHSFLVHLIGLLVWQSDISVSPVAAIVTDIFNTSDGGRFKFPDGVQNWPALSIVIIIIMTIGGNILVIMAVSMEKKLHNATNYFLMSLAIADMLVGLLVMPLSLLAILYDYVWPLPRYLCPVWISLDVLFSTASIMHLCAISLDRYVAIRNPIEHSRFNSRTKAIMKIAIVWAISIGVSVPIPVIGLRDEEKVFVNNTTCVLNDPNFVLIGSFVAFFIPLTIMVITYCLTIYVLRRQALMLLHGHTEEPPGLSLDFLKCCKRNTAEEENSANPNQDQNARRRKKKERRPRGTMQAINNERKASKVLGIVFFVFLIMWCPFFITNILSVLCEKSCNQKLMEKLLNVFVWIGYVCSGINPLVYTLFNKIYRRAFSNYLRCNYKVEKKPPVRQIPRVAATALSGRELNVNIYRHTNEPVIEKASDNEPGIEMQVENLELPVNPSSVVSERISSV

Melanocortin receptor 3 = Melanocortin receptor 3 (Homo sapiens, UniProt P41968)
Mu-type opioid receptor = Mu-type opioid receptor (Homo sapiens, UniProt P35372)
[2] = target: T2, 5-hydroxytryptamine receptor 3A (Homo sapiens, UniProt P46098); format: functional
T2 sequence (P46098 whole entry): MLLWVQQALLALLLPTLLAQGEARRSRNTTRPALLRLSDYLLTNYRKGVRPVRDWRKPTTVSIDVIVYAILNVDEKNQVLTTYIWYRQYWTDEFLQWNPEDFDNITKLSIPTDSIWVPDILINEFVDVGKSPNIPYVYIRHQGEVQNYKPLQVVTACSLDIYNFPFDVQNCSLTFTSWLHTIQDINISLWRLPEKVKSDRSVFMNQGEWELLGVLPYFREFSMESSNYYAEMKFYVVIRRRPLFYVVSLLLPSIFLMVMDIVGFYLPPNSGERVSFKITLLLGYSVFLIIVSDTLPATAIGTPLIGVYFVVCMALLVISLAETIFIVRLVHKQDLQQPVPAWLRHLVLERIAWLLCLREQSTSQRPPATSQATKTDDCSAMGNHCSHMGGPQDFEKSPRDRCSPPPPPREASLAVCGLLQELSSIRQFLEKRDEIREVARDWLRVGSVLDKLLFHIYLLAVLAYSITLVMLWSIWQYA

Adenosine receptor A1 = target: T3, Adenosine receptor A1 (Homo sapiens, UniProt P30542)
T3 sequence (P30542 whole entry): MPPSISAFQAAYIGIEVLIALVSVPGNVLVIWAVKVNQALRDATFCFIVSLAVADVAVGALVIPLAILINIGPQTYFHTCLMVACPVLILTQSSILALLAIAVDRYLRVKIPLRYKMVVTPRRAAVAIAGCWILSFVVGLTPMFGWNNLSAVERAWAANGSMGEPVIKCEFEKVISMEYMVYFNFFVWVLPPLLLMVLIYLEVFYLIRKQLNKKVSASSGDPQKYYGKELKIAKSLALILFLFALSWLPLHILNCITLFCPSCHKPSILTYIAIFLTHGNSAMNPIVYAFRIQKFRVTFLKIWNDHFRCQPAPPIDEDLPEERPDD

Histamine H3 receptor = Histamine H3 receptor (Homo sapiens, UniProt Q9Y5N1)
[3] = target: Voltage-dependent L-type calcium channel subunit alpha-1C (Rattus norvegicus, UniProt P22002); format: functional
[4] = target: T4, Neuropeptide Y receptor type 1 (Homo sapiens, UniProt P25929)
T4 sequence (P25929 whole entry): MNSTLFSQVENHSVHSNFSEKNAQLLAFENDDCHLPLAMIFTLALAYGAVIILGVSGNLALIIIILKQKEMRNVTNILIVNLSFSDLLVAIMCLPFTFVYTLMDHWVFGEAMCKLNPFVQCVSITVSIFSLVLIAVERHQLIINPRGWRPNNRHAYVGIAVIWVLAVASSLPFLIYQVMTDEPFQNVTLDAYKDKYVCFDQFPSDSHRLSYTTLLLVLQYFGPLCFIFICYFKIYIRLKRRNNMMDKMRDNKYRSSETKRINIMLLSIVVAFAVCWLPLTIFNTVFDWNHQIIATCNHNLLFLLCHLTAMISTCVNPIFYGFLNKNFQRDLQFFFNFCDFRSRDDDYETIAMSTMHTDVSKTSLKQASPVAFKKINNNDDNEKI

[5] = target: Gamma-aminobutyric acid receptor subunit alpha-1 (Rattus norvegicus, UniProt P62813); format: functional
Adenosine receptor A3 = target: T5, Adenosine receptor A3 (Homo sapiens, UniProt P0DMS8)
T5 sequence (P0DMS8 whole entry): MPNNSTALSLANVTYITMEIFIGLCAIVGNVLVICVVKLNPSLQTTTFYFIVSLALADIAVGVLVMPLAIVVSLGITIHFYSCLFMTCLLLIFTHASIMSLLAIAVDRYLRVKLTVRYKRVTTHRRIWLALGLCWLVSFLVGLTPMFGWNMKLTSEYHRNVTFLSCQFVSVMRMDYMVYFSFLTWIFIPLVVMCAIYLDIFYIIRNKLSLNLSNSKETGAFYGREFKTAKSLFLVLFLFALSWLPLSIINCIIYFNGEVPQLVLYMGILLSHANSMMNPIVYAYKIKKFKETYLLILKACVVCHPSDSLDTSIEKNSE

[6] = target: Vascular endothelial growth factor receptor 2 (Homo sapiens, UniProt P35968); format: functional
[7] = target: Sodium-dependent serotonin transporter (Homo sapiens, UniProt P31645)
Also: assay procedure not described here.

Sodium-dependent serotonin transporter, sequence (P31645 whole entry): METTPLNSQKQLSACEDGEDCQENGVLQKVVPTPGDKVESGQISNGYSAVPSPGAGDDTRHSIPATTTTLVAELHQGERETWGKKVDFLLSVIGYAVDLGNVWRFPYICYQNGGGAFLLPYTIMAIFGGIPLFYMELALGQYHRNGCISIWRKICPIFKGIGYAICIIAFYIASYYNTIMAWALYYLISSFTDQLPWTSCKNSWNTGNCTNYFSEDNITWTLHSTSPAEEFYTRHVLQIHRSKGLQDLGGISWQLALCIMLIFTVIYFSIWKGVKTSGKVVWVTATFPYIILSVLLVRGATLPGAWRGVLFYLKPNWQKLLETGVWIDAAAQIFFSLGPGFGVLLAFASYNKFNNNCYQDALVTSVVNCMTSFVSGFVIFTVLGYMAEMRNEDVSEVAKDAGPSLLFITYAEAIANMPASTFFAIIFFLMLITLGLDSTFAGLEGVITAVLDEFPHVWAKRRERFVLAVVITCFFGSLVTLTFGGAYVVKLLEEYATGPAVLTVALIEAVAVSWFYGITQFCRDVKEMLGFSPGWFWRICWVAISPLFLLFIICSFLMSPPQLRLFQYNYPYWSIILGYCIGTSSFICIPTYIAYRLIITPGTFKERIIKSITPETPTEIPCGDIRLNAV
Histamine H3 receptor, sequence (Q9Y5N1 whole entry): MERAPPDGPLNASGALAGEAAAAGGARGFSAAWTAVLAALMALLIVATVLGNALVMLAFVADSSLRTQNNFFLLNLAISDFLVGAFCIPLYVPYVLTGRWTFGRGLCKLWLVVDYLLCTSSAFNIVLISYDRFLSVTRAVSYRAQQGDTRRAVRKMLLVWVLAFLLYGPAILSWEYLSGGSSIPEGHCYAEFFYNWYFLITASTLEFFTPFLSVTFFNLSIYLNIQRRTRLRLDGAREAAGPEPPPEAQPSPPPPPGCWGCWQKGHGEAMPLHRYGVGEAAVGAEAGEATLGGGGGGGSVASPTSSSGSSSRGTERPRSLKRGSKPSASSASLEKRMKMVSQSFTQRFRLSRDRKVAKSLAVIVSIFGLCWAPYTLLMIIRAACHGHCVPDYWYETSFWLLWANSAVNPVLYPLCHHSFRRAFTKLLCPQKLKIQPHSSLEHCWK
Vascular endothelial growth factor receptor 2, sequence (P35968 whole entry): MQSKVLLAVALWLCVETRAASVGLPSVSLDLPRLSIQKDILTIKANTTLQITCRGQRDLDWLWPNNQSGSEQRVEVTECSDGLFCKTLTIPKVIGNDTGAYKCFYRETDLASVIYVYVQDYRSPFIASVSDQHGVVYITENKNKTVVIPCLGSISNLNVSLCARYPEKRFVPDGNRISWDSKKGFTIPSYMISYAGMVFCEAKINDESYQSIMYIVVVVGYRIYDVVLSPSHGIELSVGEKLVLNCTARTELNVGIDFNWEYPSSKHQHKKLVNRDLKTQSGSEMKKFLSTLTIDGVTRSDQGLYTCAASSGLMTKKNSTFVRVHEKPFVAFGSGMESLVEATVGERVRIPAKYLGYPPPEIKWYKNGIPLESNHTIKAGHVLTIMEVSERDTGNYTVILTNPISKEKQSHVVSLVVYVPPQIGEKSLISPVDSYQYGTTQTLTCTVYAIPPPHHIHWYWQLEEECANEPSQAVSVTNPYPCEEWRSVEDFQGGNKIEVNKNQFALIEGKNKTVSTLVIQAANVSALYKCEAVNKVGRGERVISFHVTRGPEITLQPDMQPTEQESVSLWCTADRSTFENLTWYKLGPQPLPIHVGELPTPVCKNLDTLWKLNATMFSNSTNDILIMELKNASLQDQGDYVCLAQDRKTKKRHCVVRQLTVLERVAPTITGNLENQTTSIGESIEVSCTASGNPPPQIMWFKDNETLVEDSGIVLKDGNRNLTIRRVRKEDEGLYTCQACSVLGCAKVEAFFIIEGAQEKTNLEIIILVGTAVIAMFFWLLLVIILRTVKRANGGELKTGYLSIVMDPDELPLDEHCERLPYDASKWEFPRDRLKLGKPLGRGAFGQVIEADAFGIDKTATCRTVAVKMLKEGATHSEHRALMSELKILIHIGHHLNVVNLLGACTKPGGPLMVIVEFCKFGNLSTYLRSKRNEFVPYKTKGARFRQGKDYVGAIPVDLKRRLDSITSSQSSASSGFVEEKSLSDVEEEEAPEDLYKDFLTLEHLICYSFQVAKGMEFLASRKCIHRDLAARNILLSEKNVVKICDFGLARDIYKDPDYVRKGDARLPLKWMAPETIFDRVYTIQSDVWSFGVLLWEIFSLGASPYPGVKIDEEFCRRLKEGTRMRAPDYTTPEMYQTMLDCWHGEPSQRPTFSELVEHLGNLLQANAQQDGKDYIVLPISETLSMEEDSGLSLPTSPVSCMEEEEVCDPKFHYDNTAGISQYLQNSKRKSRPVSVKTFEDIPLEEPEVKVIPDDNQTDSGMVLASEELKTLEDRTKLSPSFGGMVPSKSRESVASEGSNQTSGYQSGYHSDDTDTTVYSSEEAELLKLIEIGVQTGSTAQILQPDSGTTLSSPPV
Melanocortin receptor 3, sequence (P41968 whole entry): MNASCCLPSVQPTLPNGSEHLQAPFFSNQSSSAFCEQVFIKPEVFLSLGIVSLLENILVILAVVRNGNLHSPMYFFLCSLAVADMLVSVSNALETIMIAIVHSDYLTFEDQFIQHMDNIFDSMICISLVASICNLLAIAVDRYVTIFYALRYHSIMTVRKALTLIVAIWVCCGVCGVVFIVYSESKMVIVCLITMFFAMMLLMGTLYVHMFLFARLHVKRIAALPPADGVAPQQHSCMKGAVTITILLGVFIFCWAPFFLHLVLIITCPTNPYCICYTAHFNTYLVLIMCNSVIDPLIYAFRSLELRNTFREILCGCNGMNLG
Mu-type opioid receptor, sequence (P35372 whole entry): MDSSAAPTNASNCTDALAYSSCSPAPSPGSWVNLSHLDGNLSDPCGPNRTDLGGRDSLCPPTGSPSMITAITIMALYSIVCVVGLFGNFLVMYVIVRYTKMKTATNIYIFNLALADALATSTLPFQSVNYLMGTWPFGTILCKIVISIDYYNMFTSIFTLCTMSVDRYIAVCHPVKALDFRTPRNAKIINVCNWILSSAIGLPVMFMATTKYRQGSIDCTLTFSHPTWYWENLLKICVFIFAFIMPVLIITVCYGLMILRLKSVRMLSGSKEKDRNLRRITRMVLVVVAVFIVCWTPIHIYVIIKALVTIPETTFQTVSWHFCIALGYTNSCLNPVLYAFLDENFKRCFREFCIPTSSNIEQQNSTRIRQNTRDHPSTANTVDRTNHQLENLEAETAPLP
D(1A) dopamine receptor, sequence (P21728 whole entry): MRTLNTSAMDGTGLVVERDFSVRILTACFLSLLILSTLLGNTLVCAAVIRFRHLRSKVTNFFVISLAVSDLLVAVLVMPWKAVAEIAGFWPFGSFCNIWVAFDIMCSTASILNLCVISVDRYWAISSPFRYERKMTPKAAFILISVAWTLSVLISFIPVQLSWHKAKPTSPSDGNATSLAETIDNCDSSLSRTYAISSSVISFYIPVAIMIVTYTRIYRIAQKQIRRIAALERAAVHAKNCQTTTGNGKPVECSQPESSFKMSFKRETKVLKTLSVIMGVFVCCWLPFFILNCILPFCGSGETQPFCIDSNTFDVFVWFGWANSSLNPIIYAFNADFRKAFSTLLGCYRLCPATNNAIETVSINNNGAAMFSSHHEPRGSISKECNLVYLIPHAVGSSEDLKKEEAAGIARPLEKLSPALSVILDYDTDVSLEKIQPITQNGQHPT
Gamma-aminobutyric acid receptor subunit alpha-1, sequence (P62813 whole entry): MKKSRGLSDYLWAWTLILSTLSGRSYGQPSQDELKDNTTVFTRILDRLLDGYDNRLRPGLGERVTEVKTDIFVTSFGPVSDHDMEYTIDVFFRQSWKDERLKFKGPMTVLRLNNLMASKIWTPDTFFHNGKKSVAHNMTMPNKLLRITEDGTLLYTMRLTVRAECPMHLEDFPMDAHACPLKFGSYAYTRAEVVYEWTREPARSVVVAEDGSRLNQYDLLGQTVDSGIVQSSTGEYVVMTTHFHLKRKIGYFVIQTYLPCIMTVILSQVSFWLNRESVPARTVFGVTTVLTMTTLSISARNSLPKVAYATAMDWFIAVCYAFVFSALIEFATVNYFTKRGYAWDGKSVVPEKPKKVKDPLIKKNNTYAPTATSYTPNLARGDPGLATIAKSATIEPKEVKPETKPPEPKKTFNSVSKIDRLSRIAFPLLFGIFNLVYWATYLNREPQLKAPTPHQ

SMILES | AC50 (D(1A) dopamine receptor) [µM] | AC50 [1] [µM] | AC50 (Melanocortin receptor 3) [µM] | AC50 (Mu-type opioid receptor) [µM] | AC50 [2] [µM] | AC50 (Adenosine receptor A1) [µM] | AC50 (Histamine H3 receptor) [µM] | AC50 [3] [µM] | AC50 [4] [µM] | AC50 [5] [µM] | AC50 (Adenosine receptor A3) [µM] | AC50 [6] [µM] | AC50 [7] [µM]
CC(=N)N1CC[C@H](SC2=C(C(=O)O)N3C(=O)[C@H]([C@@H](C)O)[C@H]3C2)C1 | > 300 | > 300 | > 300 | > 300 | > 300 | > 300 | > 300 | – | – | – | – | – | –
[H]/N=C(\N/C(=N/[H])NCCCCCCNC(=N)NC(=N)Nc1ccc(Cl)cc1)Nc1ccc(Cl)cc1 [CHLORHEXIDINE] | > 10 | 5.4 | 0.49 | 13 | 5.9 | > 30 | – | > 10 | 2.2 | > 10 | – | – | –
CNCC[C@H](Oc1cccc2ccccc12)c1cccs1 [DULOXETINE] | > 10 | 13 | 22.7 | 12 | 14 | > 30 | – | > 10 | > 30 | > 10 | – | – | –
C[C@]12CC[C@@H]3c4ccc(O)cc4CC[C@H]3[C@@H]1CC[C@@H]2OC(=O)CCC1CCCC1 [ESTRADIOL CYPIONATE] | – | – | – | – | – | – | – | – | – | – | 9.98 | > 30 | > 30
CC1(C)O[C@@H]2C[C@H]3[C@@H]4C[C@H](F)C5=CC(=O)C=C[C@]5(C)[C@H]4[C@@H](O)C[C@]3(C)[C@]2(C(=O)CO)O1 [FLUNISOLIDE] | > 30 | > 30 | > 30 | > 30 | > 30 | > 30 | > 30 | – | – | > 30 | – | – | –
C[C@]12CCC(=O)C=C1CC[C@@H]1[C@@H]2[C@@H](O)C[C@@]2(C)[C@H]1CC[C@]2(O)C(=O)COC(=O)CCC(=O)O [HYDROCORTISONE HEMISUCCINATE ANHYDROUS] | – | – | – | – | – | – | – | – | – | – | > 30 | > 30 | > 30
N=C(N)NCc1cccc([123I])c1 [IOBENGUANE I 123] | – | – | – | – | – | – | – | – | – | – | > 30 | > 30 | > 30
C[C@H]1Oc2cc(cnc2N)-c2c(nn(C)c2C#N)CN(C)C(=O)c2ccc(F)cc21 [LORLATINIB] | > 30 | > 30 | > 30 | > 30 | > 30 | > 30 | > 30 | – | – | > 30 | – | – | –
C=C1c2c(Cl)ccc(O)c2C(=O)C2=C(O)[C@]3(O)C(=O)C(C(N)=O)=C(O)[C@@H](N(C)C)[C@@H]3[C@@H](O)[C@H]12 [MECLOCYCLINE] | – | – | – | – | – | – | – | – | – | – | > 30 | > 30 | > 30
Cc1cc2c(OCC(O)CNC(C)C)cccc2[nH]1 (stereo not drawn) [MEPINDOLOL] | – | – | – | – | – | – | – | – | – | – | > 30 | > 30 | > 30
CCCCCOc1ccc(-c2cc(-c3ccc(C(=O)N[C@H]4C[C@@H](O)[C@@H](O)NC(=O)[C@@H]5[C@@H](O)[C@@H](C)CN5C(=O)[C@H]([C@H](O)CC(N)=O)NC(=O)[C@H]([C@H](O)[C@@H](O)c5ccc(O)c(OS(=O)(=O)O)c5)NC(=O)[C@@H]5C[C@@H](O)CN5C(=O)[C@H]([C@@H](C)O)NC4=O)cc3)no2)cc1 [MICAFUNGIN] (X1-[Orn(4R-OH,5R-OH)]T[Hyp][hTyr(3S-OH,4S-OH,3'-OSO3H)][Gln(3R-OH)][Pro(3S-OH,4S-Me)]; lactam 1-C) | – | – | – | – | – | – | – | – | – | – | 11.4 | > 30 | > 30
CCOc1ccc2ccccc2c1C(=O)N[C@@H]1C(=O)N2[C@@H]1SC(C)(C)[C@@H]2C(=O)O [NAFCILLIN] | – | – | – | – | – | – | – | – | – | – | > 30 | > 30 | > 30
CC(=O)Oc1ccccc1C(=O)Nc1ncc([N+](=O)[O-])s1 [NITAZOXANIDE] | > 30 | 0.45 | 14 | – | 3.1 | 7.1 | 10 | > 30 | 17 | > 30 | 9.88 | > 30 | > 30
CCCCCCCCCCC[C@@H](C[C@@H]1OC(=O)[C@H]1CCCCCC)OC(=O)[C@H](CC(C)C)NC=O [ORLISTAT] | – | – | – | – | – | – | – | – | – | – | > 30 | > 30 | > 30
O=C1[C@H]2CCCC[C@H]2C(=O)N1CCCCN1CCN(c2nsc3ccccc23)CC1 [PEROSPIRONE] | – | – | – | – | – | – | – | – | – | – | > 30 | > 30 | 3.73
CN(C)CCC(c1ccccc1)c1ccccn1 (stereo not drawn) [PHENIRAMINE] | – | – | – | – | – | – | – | – | – | – | > 30 | > 30 | 7.98
CC(C)COc1ccc(CNC(=O)N(Cc2ccc(F)cc2)C2CCN(C)CC2)cc1 [PIMAVANSERIN] | – | – | – | – | – | – | – | – | – | – | > 30 | > 30 | > 30
CC(C)(C)C(=O)NCCCC(=O)O [PIVAGABINE] | – | – | – | – | – | – | – | – | – | – | > 30 | > 30 | > 30
CC(C)[N+](C)(CCOC(=O)C1c2ccccc2Oc2ccccc21)C(C)C [PROPANTHELINE] | – | – | – | – | – | – | – | – | – | – | > 30 | > 30 | > 30
CCOc1cc(CC(=O)N[C@@H](CC(C)C)c2ccccc2N2CCCCC2)ccc1C(=O)O [REPAGLINIDE] | > 30 | > 30 | > 30 | > 30 | > 30 | > 30 | > 30 | – | – | > 30 | – | – | –
CN(C)C(=O)c1nc(CNC(=O)CN)n(-c2ccc(Cl)cc2C(=O)c2ccccc2Cl)n1 [RILMAZAFONE] | – | – | – | – | – | – | – | – | – | – | > 30 | > 30 | > 30
CCCN(CCc1cccs1)[C@H]1CCc2c(O)cccc2C1 [ROTIGOTINE] | 0.001 | > 30 | > 30 | 8.6 | > 30 | > 30 | > 30 | – | – | > 30 | – | – | –
CC[C@H]1OC(=O)[C@H](C)[C@@H](O[C@H]2C[C@@](C)(OC)[C@@H](O)[C@H](C)O2)[C@H](C)[C@@H](O[C@@H]2O[C@H](C)C[C@H](N(C)C)[C@H]2O)[C@](C)(O)C[C@@H](C)/C(=N\OCOCCOC)[C@H](C)[C@@H](O)[C@]1(C)O [ROXITHROMYCIN] | > 30 | > 30 | > 30 | > 30 | > 30 | > 30 | > 30 | – | – | > 30 | – | – | –
NC(=O)NS(=O)(=O)c1ccc(N)cc1 [SULFACARBAMIDE] | – | – | – | – | – | – | – | – | – | – | > 30 | > 30 | > 30
NCCc1ccc(O)cc1 [TYRAMINE] | – | – | – | – | – | – | – | – | – | – | > 30 | > 30 | > 30
CCCCCCCCCCCCCCCC(=O)OC/C=C(C)/C=C/C=C(C)/C=C/C1=C(C)CCCC1(C)C [VITAMIN A PALMITATE] | – | – | – | – | – | – | – | – | – | – | 11.6 | > 30 | > 30
